# System: vascular endothelial growth factor (VEGF) induced blood-retinal barrier breakdown
# Assay: Rabbit pharmacodynamics, VEGF-induced vascular leakage
# Type: in vivo, Dutch Belted rabbits
# Description: Pharmacodynamics. Rabbit pharmacodynamics studies were performed at Absorption Systems California (San Diego, CA, USA). All studies were conducted in compliance with relevant ethical regulations, including the USDA Animal Welfare Act (i.e., relevant sections of Section 9, Part 1, 2, and 3 of the Code of Federal Regulations) and in compliance with Absorption Systems’ Animal Welfare Assurance filed with the National Institutes of Health. Protocols were reviewed and approved by Absorption Systems’ Institutional Animal Care and Use Committee (IACUC) prior to the initiation of procedures. Treatment of animals was in accordance with conditions specified in the Guide for Care and Use of Laboratory Animals (NRC, 2011, National Academy Press). Animals were anesthetized with intramuscular ketamine hydrochloride (15-20 mg/kg) and xylazine (5 mg/kg) prior to test article injection or vascular leakage induction. The eye area was surgically prepped with 5% betadine and rinsing with balanced salt solution, followed by administration of 1–2 drops of topical proparacaine hydrochloride (0.5%). […] Test articles (27 G × 6 mm, 30 G × 6 mm, and 32 G × 6 mm Dex-TEG-Dex extruded rods, or Ozurdex®) were injected intravitreally in Dutch Belted rabbits (male, 1.84–2.49 kg, 5–6 months) on Day 0 and vascular leakage was induced by an intravitreal injection of VEGF (500 ng/eye) at acute and chronic timepoints (1 week, 2.5, 4.5, 6, 9, 12, and/or 18 months) post-implantation. Post-injection analgesia was provided by 0.02-0.05 mg/kg IM/SC buprenorphine. Negative control rabbits received a sham injection while positive control rabbits received a 2 mg solution dose of triamcinolone acetonide (Kenalog-40). Ophthalmic exams, including fundus microscopy and slit lamp microscopy, were carried out over the 3 days post-VEGF induction and vascular leakage was measured by fluorescein angiography on the third day post-VEGF induction. Eyes were graded based on fundus and fluorescein angiography images using a scoring system as follows[76]: 0 – major vessels straight, some tortuosity of smaller vessels, no vessel dilation; 1 – increased tortuosity of major vessels and/or some vessel dilation; 2 – leakage between major vessels, significant vessel dilation; 3 – leakage between major and minor vessels, minor vessels still visible; and 4 – leakage between major and minor vessels, minor vessels poorly/not visible.
smiles,measurement,setting,value
C[C@@H]1C[C@H]2[C@@H]3CCC4=CC(=O)C=C[C@]4(C)[C@@]3(F)[C@@H](O)C[C@]2(C)[C@@]1(O)C(=O)COC(=O)OCCOCCOCCOC(=O)OCC(=O)[C@@]1(O)[C@H](C)C[C@H]2[C@@H]3CCC4=CC(=O)C=C[C@]4(C)[C@@]3(F)[C@@H](O)C[C@@]21C [Dex-TEG-Dex],efficacy against VEGF-induced changes,"1 week, Dex-TEG-Dex as 30 G × 6 mm implant",efficacious
same,duration of efficacy,"27 G × 6 mm implant, all time points tested",≥ 18 months
same,duration of inhibition of VEGF-induced effects,32 G × 6 mm implant,≥ 4.5 months
same,efficacy against VEGF-induced changes,"32 G × 6 mm implant, 6 months",reduced efficacy
same,duration of efficacy,"Dex-TEG-Dex as 30 G × 6 mm implant, VEGF challenge",9–12 months
same,duration of efficacy,"Dex-TEG-Dex as 30 G × 6 mm implant, VEGF challenge, listed as dexamethasone dimer",> 6 months
